Assays:
4T1 cells = experiment: Seahorse mitochondrial stress test in intact 4T1 cells; type: cell-based, murine
4T1 = experiment: MTT cell proliferation inhibition assay, 4T1; type: cell-based, murine; details: Mus musculus, 72 h, 3 days, average ± SEM
Experimental: Confluent cell cultures were treated with trypsin and resuspended at 5 × 10^4 cells/ml. To a 96-well plate, 100 μl of the 5 × 10^4 cells/ml solution were added and allowed to incubate at 37 °C, 5% CO2 for 24 h. Compounds were then added and allowed to incubate for 3 days. […] Following the 4-h incubation with 3-(4,5-dimethylthiazol-2-yl)-2,5-diphenyltetrazolium bromide, 100 μl of SDS (0.1 g/ml, 0.01 N HCl) was added, and 96-well plates were allowed to incubate for an additional 4 h. […] Treatment absorbances are taken as percentages of the average untreated absorbances and plotted against log(concentration) in GraphPad Prism 10 (GraphPad Software, Inc) to generate effective concentration values where 50% of the cells are not proliferating (EC50).

67NR = experiment: Sulforhodamine B cell proliferation inhibition assay, 67NR; type: cell-based, murine; details: Mus musculus, 72 h, average ± SEM
Experimental: Cells were seeded (3 × 10^4 cells/well) in 48-well plates and incubated overnight (37 °C, 5% CO2). Test compounds were then exposed to cells in duplicate in serial dilution fashion and were incubated for an additional 72 h (37 °C, 5% CO2). Media were then aspirated, and cells were washed three times with cold PBS and left overnight to dry fix. […] Dyed cells were then lysed with Tris (10 mM, pH 10), and absorbance readings were recorded at 540 nm of each well. Treatment absorbances are taken as percentages of the average untreated absorbances and plotted against log(concentration) in GraphPad Prism 10 to generate effective concentration values where 50% of the cells are not proliferating (EC50).

[1] = Intrinsic CL in human liver microsomes; type: in vitro ADME
[2] = target: T1, mitochondrial pyruvate carrier (MPC) (Mus musculus, UniProt P63030+Q9D023); experiment: Pyr-driven respiration in permeabilized 67NR cells; type: cell-based, murine
T1 construct: 4T1 cells were seeded (20,000 cells/well) onto Seahorse XFe96 well plates; host or cells: 4T1 murine breast cancer cells, rPFO-permeabilized
T1 sequence (P63030 1-109): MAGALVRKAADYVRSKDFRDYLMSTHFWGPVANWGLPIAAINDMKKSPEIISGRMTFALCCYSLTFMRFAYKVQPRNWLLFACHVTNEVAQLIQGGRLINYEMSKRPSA
T1 sequence (Q9D023 1-127): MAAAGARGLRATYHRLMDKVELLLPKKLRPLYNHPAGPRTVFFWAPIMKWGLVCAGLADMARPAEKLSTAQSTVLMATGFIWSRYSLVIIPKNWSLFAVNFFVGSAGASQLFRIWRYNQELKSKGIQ

[3] = test system: MPC or MCT expression levels; experiment: Western blotting of MPC and MCT expression; type: cell-based; details: Western blot
Experimental: After denaturation at 95 °C for 10 min in radioimmunoprecipitation buffer, protein concentration was determined and equilibrated using the bicinchoninic acid assay (ThermoScientific), and 20 μg of protein was separated by electrophoresis in 4 to 12% polyacrylamide gels. Proteins were electrophoretically transferred to polyvinylidene fluoride membranes for 90 min at 100 V and stained with Ponceau to verify transfer quality and equal protein loading. […] Santa Cruz, catalog no.: sc-365501, 1:1000 dilution; MCT4, Santa Cruz, catalog no.: sc-376140, 1:1000 dilution; MPC1, Cell Signaling, 1:1000 dilution, catalog no.: 14462; MPC2, Cell Signaling, 1:1000 dilution, catalog no.: 46141; […] TBST, 0.5% nonfat milk protein). Membranes were rinsed three times with TBST and incubated with the respective secondary goat antimouse IgG (1:10,000 dilution) or goat anti-rabbit IgG (1:10,000 dilution) horseradish peroxidase–conjugated antibodies (Cell Signaling). Membranes were again washed three times with TBST and exposed to SuperSignal 60 West luminol enhancer and stable peroxide solution (ThermoScientific) for 2 min. Chemiluminescent images were obtained using a LicorFC imager. Images shown are representative of two separate experiments obtained from independent biological samples.

physchem = details: water
From the text: Starting with the carboxylic acid 24, various salt forms were generated to increase the water solubility.

Compound: CN(Cc1ccc(C(F)(F)F)cc1)c1ccc2cc(C(=O)O)c(=O)oc2c1.NC(CO)(CO)CO [C5, 1,3-dihydroxy-2-(hydroxymethyl)propan-2-aminium 7-(methyl(4-(trifluoromethyl)benzyl)amino)-2-oxo-2H-chromene-3-carboxylate]
- compensatory glycolysis (extracellular acidification rates) (4T1 cells): dose-dependent decrease
- mitochondrial respiration (OCR) (4T1 cells; media with glucose, Pyr, glutamine): inhibited mitochondrial respiration in a dose-dependent fashion
- EC50 (4T1): 23.4 ± 4.9 µM
- EC50 (67NR): 94.7 ± 12.9 µM
- increase in Clint compared with C3 ([1]; human liver microsomes): two-fold
- half-life ([1]; human, liver microsomes, exceeding the experimental endpoints): > 2 h
- effect on pyruvate driven respiration [2]: inhibits
- effect on MPC or MCT expression levels [3]: does not alter
- solubility (physchem): 10000 µg/mL

Reference: paper PMC12355554, “Development of novel mitochondrial pyruvate carrier inhibitors for breast cancer treatment” (The Journal of Biological Chemistry, 2025)
